Test results published in US7144452B2, “Ink jet black ink, ink set, ink jet recording method, ink cartridge, recording unit, and ink jet recording apparatus” (Canon Kabushiki Kaisha, priority 2004, dated 2006).

Experiment: Relative permittivity of water-soluble organic solvent (LCR meter)
Assay type: physicochemical
Details: not given
Protocol: The relative permittivity of the water-soluble organic solvent of various types was measured with LCR Meter 4284A (manufactured by Hewlett-Packard Japan, Ltd.) under conditions of a room temperature of 20° C. and a measurement frequency of 1 MHz.

Compound | Relative permittivity (measurement frequency: 1 MHz)
OCCCCO [1,4-Butanediol] | 31.3
OCCO [Ethylene glycol] | 38.1

Same assay, conditions: room temperature of 20° C., 1 MHz

Compound | Relative permittivity (measurement frequency: 1 MHz)
OCCCCC(O)CO (stereo not drawn) [1,2,6-Hexanetriol] | 28.5
CC(O)CO (stereo not drawn) [1,2-Propanediol] | 32.2
O=C1CCCN1 [2-Pyrrolidone] | 27.5
OCC(O)CO [Glycerol] | 43.0
